Legend:
human recombinant CYP1A2 = molecular target: T1, human recombinant CYP1A2 (Homo sapiens, UniProt P05177); experiment: CYP phenotyping panel (PTX 251D clearance); type: in vitro ADME; details: 1E-07 M PTX 251D; after 60 minutes
T1 construct: Eurofins Discovery Services (Eurofins Panlabs Inc) ran the assay
T1 sequence (P05177 1-516): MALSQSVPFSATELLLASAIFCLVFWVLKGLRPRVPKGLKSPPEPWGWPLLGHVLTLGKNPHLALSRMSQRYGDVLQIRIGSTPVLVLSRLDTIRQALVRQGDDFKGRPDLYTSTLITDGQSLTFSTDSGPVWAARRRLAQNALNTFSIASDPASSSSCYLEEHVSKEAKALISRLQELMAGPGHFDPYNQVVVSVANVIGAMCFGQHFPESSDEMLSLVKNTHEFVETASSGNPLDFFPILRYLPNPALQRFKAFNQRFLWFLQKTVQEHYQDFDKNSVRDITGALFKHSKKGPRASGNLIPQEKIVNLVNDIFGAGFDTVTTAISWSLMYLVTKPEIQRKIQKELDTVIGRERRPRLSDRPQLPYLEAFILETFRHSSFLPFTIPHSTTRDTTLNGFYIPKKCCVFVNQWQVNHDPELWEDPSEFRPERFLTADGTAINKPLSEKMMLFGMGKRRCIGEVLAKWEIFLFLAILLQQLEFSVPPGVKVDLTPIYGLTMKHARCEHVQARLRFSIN
Procedure: (§1) Assays for human CYP activity (CYP phenotyping), CYP2D6 metabolite discovery (metID), ion channel inhibition (CiPA), and G-protein coupled receptor (GPCR) activity (gpcrMAX) were performed through Eurofins Discovery Services (Eurofins Panlabs Inc, St. Charles MO, USA). In the CYP phenotyping panel, human recombinant CYP1A2, CYP2B6, CYP2C8, CYP2C9, CYP2C19, CYP2D6, and CYP3A4 were included in the assay. A concentration of 1E-07 M of PTX 251D was tested, and the percent compound remaining was quantified at 0, 15, 30, 45, and 60 minutes using HPLC-MS/MS. As a positive control, a reference compound was used for each CYP tested (see S1 File for results). In the CYP2D6 metabolism assay, human recombinant CYP2D6 was incubated with an initial concentration of 10 μM and metabolites were quantified after 90 minutes using LC-MS/MS. Two replicates were used for the CYP phenotyping panel and one replicate was used for CYP2D6 metabolite assay. The CiPA assay was a cell-based QPatch on voltage-gated sodium channel NaV1.5 (peak and late/agonist), voltage-gated potassium channels Kv4.3/KChIP2, hERG, KCNQ1/minK, Kir2.1, and voltage-gated calcium channel Cav1.2. The concentrations of PTX 251D assayed were 3, 10, and 30 μM, and a reference compound for each channel was used (see S1 File for results and individual QPatch parameters). In the gpcrMAX assay a panel of 165 GPCRs was tested through the DiscoverX PathHunter beta-arrestin enzyme fragment complementation technology, and a concentration of 10 μM PTX 251D was tested for both agonist and antagonist activity along with a reference compound for each GPCR (see S1 File for results).

human recombinant CYP2B6 = molecular target: T2, human recombinant CYP2B6 (Homo sapiens, UniProt P20813); experiment: CYP phenotyping panel (PTX 251D clearance); type: in vitro ADME; details: 1E-07 M PTX 251D; after 60 minutes
T2 construct: Eurofins Discovery Services (Eurofins Panlabs Inc) ran the assay
T2 sequence (P20813 1-491): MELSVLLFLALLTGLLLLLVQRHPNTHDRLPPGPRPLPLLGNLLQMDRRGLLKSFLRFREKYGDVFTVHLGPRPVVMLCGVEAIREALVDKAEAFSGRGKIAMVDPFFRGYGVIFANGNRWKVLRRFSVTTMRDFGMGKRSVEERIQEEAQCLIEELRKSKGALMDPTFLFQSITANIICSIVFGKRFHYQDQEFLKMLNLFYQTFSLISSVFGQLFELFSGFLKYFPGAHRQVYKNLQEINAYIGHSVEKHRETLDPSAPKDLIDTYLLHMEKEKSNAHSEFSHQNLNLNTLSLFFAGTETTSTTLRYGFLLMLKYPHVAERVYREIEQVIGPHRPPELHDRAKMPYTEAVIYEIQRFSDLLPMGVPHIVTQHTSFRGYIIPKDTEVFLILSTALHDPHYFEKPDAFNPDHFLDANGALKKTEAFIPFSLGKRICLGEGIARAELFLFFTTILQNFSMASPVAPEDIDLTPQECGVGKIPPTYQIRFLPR
Procedure: as §1

[1] = molecular target: T3, human recombinant CYP2C19 (Homo sapiens, UniProt P33261); experiment: CYP phenotyping panel (PTX 251D clearance); type: in vitro ADME; details: 1E-07 M PTX 251D; after 60 minutes
T3 construct: Eurofins Discovery Services (Eurofins Panlabs Inc) ran the assay
Procedure: as §1

human recombinant CYP2C8 = molecular target: T4, human recombinant CYP2C8 (Homo sapiens, UniProt P10632); experiment: CYP phenotyping panel (PTX 251D clearance); type: in vitro ADME; details: 1E-07 M PTX 251D; after 60 minutes
T4 construct: Eurofins Discovery Services (Eurofins Panlabs Inc) ran the assay
T4 sequence (P10632 1-490): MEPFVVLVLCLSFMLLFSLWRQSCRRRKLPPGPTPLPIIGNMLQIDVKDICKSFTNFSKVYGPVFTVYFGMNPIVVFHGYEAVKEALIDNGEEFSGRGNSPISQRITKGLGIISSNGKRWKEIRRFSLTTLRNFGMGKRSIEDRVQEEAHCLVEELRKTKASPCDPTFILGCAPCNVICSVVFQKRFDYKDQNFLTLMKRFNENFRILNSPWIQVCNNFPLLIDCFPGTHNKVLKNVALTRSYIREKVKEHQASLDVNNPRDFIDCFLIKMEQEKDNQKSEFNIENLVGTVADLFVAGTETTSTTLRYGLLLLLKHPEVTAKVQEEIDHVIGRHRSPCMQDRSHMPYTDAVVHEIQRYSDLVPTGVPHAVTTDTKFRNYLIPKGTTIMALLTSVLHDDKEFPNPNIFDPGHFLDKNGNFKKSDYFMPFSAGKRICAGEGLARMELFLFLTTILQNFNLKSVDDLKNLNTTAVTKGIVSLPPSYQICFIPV
Procedure: as §1

human recombinant CYP2C9 = molecular target: T5, human recombinant CYP2C9 (Homo sapiens, UniProt P11712); experiment: CYP phenotyping panel (PTX 251D clearance); type: in vitro ADME; details: 1E-07 M PTX 251D; after 60 minutes
T5 construct: Eurofins Discovery Services (Eurofins Panlabs Inc) ran the assay
Procedure: as §1

human recombinant CYP2D6 [2] = molecular target: T6, human recombinant CYP2D6 (Homo sapiens, UniProt P10635); experiment: CYP phenotyping panel (PTX 251D clearance); type: in vitro ADME; details: 1E-07 M PTX 251D
T6 construct: Eurofins Discovery Services (Eurofins Panlabs Inc) ran the assay
Procedure: as §1

human recombinant CYP3A4 = molecular target: T7, human recombinant CYP3A4 (Homo sapiens, UniProt P08684); experiment: CYP phenotyping panel (PTX 251D clearance); type: in vitro ADME; details: 1E-07 M PTX 251D; after 60 minutes
T7 construct: Eurofins Discovery Services (Eurofins Panlabs Inc) ran the assay
Procedure: as §1

human recombinant CYP2D6 [3] = molecular target: T6, human recombinant CYP2D6; experiment: CYP2D6 metabolite discovery (metID); type: in vitro ADME; details: initial concentration 10 μM
Procedure: as §1, with “In the gpcrMAX assay a panel of 165 GPCRs was tested through the DiscoverX PathHunter beta-arrestin enzyme fragment complementation technology, and a concentration of 10 μM PTX 251D was tested for both agonist and antagonist activity along with a reference compound for each GPCR (see S1 File for results).” left out

[4] = molecular target: T8, voltage-gated calcium channel Cav1.2 (Homo sapiens, UniProt Q13936); experiment: CiPA cell-based QPatch ion channel inhibition; details: maximum concentration of 30 uM
T8 construct: Eurofins Discovery Services (Eurofins Panlabs Inc) ran the assay
Procedure: as §1

panel of 165 GPCRs = experiment: gpcrMAX PathHunter beta-arrestin GPCR panel (agonist and antagonist); type: cell-based, human; details: 10 uM; 165 GPCRs tested
Procedure: as §1, with “In the gpcrMAX assay a panel of 165 GPCRs was tested through the DiscoverX PathHunter beta-arrestin enzyme fragment complementation technology, and a concentration of 10 μM PTX 251D was tested for both agonist and antagonist activity along with a reference compound for each GPCR (see S1 File for results).” left out

mice = mice and insects; cited from earlier work

T6 sequence (P10635 whole entry): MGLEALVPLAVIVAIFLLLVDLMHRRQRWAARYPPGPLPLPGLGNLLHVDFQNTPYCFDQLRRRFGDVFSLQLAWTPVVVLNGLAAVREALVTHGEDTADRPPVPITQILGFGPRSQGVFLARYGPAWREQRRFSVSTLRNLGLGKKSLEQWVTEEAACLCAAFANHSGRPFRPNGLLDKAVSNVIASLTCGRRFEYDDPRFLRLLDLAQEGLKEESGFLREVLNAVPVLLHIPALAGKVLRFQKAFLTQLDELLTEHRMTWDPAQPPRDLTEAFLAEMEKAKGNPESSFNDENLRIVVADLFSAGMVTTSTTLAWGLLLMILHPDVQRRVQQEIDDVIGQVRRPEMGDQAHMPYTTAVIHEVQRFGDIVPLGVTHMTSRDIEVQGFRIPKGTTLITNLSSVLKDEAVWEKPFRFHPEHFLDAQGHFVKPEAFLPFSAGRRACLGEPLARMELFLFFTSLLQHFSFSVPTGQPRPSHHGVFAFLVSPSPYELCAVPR
T8 sequence (Q13936 whole entry): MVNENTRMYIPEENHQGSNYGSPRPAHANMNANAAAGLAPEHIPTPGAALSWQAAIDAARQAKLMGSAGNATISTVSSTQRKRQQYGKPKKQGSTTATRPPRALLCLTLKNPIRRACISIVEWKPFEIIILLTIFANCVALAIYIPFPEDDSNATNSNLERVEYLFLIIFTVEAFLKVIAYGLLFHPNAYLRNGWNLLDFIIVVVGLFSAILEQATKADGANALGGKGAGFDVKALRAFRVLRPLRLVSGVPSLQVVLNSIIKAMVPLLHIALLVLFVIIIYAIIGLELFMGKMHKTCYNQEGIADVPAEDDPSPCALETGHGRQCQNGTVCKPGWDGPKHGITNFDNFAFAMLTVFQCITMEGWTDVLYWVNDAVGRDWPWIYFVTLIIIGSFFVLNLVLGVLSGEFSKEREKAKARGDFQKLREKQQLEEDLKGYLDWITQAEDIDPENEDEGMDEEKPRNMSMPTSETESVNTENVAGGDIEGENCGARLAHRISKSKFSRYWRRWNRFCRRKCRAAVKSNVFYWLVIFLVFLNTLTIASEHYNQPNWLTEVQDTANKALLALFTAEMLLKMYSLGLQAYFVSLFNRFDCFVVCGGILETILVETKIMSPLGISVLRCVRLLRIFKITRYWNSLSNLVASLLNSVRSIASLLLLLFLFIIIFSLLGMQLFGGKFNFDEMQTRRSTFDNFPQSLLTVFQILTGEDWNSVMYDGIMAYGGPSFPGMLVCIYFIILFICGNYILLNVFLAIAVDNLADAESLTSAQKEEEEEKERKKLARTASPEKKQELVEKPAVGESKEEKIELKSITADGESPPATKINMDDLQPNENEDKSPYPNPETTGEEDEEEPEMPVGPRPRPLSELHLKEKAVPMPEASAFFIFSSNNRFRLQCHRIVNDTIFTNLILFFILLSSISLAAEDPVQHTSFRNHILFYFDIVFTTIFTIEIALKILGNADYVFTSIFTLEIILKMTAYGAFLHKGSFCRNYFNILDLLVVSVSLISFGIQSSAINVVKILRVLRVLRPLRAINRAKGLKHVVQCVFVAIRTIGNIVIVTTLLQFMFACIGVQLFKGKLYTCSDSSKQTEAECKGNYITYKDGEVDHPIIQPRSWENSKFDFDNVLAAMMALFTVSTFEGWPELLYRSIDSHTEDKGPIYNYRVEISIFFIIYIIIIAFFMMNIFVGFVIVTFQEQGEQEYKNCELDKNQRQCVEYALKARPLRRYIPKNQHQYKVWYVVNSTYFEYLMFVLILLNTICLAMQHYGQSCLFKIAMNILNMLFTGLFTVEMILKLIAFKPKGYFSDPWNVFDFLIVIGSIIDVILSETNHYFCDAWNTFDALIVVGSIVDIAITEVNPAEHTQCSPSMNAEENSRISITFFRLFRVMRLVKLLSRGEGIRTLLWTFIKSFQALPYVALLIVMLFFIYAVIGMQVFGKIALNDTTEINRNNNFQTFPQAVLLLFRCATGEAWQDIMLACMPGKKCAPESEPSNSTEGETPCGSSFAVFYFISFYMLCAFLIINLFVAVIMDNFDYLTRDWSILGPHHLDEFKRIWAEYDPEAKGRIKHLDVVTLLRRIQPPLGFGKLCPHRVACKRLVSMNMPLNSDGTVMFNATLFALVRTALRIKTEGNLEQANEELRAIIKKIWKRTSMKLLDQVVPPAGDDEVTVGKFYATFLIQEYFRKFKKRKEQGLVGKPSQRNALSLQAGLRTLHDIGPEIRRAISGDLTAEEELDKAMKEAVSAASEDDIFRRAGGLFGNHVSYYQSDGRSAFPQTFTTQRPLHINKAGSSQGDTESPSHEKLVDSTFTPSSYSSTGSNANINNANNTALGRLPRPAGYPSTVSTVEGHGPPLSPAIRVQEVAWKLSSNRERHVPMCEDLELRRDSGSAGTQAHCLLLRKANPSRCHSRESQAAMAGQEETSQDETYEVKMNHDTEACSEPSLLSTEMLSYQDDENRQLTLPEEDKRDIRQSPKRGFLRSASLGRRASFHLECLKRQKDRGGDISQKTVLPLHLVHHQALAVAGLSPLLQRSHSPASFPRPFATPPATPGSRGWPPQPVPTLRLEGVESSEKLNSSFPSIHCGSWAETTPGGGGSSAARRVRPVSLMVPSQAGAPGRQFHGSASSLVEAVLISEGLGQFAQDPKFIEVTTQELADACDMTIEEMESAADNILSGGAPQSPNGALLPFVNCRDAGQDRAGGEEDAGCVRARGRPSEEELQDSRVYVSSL
T8 sequence (Q08289 whole entry partner): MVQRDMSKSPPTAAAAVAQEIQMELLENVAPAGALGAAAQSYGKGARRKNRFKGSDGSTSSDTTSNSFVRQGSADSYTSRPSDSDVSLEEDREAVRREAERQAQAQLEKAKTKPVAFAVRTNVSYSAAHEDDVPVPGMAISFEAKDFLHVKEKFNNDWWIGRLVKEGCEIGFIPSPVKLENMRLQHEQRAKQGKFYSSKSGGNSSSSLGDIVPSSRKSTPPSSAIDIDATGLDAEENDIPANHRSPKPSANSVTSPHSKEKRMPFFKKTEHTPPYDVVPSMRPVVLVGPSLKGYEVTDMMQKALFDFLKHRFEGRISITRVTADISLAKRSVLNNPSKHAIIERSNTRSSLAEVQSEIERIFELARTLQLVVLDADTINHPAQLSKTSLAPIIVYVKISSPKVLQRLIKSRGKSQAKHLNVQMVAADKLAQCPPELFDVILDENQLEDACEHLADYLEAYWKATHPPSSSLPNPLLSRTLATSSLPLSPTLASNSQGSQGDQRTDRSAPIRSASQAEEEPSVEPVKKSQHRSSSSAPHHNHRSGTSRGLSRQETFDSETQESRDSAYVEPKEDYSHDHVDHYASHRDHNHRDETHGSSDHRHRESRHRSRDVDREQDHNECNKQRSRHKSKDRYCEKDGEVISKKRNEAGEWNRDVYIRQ
T8 sequence (P54289 25-946 partner limits assumed): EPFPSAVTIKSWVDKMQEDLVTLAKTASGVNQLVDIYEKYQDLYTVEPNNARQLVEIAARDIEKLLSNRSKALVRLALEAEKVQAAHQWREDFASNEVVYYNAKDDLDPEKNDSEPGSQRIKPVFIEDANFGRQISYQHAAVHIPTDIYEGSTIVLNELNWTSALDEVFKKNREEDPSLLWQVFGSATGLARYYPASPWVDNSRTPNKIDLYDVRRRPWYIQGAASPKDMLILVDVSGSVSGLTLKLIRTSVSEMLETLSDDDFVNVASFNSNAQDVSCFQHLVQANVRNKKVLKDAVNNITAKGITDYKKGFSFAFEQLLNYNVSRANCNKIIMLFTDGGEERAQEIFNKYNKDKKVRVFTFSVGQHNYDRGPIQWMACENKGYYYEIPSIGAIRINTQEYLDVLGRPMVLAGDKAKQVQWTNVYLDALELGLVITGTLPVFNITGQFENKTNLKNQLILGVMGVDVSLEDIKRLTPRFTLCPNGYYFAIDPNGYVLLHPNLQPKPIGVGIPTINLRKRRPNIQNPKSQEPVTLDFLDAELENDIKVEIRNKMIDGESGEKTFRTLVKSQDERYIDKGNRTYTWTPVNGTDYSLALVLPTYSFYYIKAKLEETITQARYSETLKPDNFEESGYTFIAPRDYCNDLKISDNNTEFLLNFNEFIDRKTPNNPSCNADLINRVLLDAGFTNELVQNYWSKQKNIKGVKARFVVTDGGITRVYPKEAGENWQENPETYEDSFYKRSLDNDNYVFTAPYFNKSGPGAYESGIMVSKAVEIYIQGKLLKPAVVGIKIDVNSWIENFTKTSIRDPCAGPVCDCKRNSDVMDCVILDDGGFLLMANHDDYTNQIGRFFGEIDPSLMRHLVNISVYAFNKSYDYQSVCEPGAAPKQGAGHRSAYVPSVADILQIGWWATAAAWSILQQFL
T8 sequence (P54289 947-1103 partner limits assumed): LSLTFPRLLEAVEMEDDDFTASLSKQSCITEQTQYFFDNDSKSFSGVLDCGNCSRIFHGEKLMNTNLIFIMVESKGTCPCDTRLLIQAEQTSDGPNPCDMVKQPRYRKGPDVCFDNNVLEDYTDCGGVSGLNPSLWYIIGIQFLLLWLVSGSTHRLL
T7 sequence (P08684 whole entry): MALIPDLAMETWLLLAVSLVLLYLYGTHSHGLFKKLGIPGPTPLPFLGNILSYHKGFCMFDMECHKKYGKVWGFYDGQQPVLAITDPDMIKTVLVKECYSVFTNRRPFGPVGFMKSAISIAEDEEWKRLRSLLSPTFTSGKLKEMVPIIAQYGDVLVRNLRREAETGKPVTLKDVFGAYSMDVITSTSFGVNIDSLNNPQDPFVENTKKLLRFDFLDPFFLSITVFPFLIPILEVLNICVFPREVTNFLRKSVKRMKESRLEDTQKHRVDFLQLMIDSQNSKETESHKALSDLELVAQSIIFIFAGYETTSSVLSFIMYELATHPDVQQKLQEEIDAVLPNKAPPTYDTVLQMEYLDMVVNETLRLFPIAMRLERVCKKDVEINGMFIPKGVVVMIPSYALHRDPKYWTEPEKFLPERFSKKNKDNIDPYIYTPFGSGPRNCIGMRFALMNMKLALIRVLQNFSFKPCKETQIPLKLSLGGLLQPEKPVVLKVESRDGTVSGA

Structure (SMILES): CCCCC(C)C=C1CN2CCCC2C(C)(O)C1 (stereo not shown) [PTX 251D, pumiliotoxin (PTX 251D)]
- clearance of PTX 251D by CYP1A2 (human recombinant CYP1A2): minimal clearance
- clearance of PTX 251D by CYP2B6 (human recombinant CYP2B6): minimal clearance
- clearance of PTX 251D by CYP2C19 [1]: minimal clearance
- clearance of PTX 251D by CYP2C8 (human recombinant CYP2C8): minimal clearance
- clearance of PTX 251D by CYP2C9 (human recombinant CYP2C9): minimal clearance
- PTX 251D remaining after incubation with CYP2D6 (human recombinant CYP2D6 [2]; after 15 minutes): most of the initial compound depleted
- clearance of PTX 251D by CYP2D6 (human recombinant CYP2D6 [2]; percent compound remaining at 0-60 minutes, HPLC-MS/MS): rapid clearance
- clearance of PTX 251D by CYP3A4 (human recombinant CYP3A4): minimal clearance
- metabolites identified with CYP2D6 (human recombinant CYP2D6 [3]; 90 minutes, one or two hydroxylation events): two metabolites were identified
- clearance of PTX 251D in CYP2D6 metabolite discovery screen (human recombinant CYP2D6 [3]; after 90 minutes, LC-MS/MS): completely cleared
- inhibitory effect on Cav1.2 [4]: no inhibitory effect
- inhibition or activation of GPCRs (panel of 165 GPCRs): no significant inhibition or activation
- toxic effects (mice): pain, hyperactivity, convulsions and death
